The results in this text go back to US10206909B2, “3-(1H-pyrrolo[2,3-B]pyridin-2-yl)-1H-pyrazolo[4,3-B]pyridines and therapeutic uses thereof” (Samumed, LLC, priority 2015, dated 2019).

Test [1] relates to Wnt activity (Sp5-Luc reporter, SW480 colon carcinoma cells). As to the kind of experiment: Wnt activity screening assay: Sp5-Luc reporter gene assay in SW480 cells. The format is cell-based. To be noted: Homo sapiens; for EC50: SW480 cells, overnight incubation; for inhibition at 10 µM: given where EC50 >10 μM, SW480, read-out: percent inhibition at 10 μM. From the text:
The screening assay for Wnt activity is described as follows. Reporter cell lines can be generated by stably transducing cancer cell lines (e.g., colon cancer) or primary cells (e.g., IEC-6 intestinal cells) with a lentiviral construct that includes a Wnt-responsive promoter driving expression of the firefly luciferase gene.
SW480 colon carcinoma cells were transduced with a lentiviral vector expressing luciferase with a human Sp5 promoter consisting of a sequence of eight TCF/LEF binding sites. SW480 cells stably expressing the Sp5-Luc reporter gene and a hygromycin resistance gene were selected by treatment with 150 μg/mL of hygromycin for 7 days. These stably transduced SW480 cells were expanded in cell culture and used for all further screening activities. Each compound was dissolved in DMSO as a 10 mM stock and used to prepare compound source plates. Serial dilution (1:3, 10-point dose-response curves starting from 10 μM) and compound transfer was performed using the ECHO 550 (Labcyte, Sunnyvale, Calif.) into 384-well white solid bottom assay plates (Greiner Bio-One) with appropriate DMSO backfill for a final DMSO concentration of 0.1%. For Sp5-Luc reporter gene assays, the cells were plated at 4,000 cells/well in 384-well plates with medium containing 1% fetal bovine serum and incubated overnight at 37° C. and 5% CO2. Following incubation, 20 μl of BrightGlo luminescence reagent (Promega) was added to each well of the 384-well assay plates. The plates were placed on an orbital shaker for 2 min and then luminescence was quantified using the Envision (Perkin Elmer) plate reader. Readings were normalized to DMSO only treated cells, and normalized activities were utilized for EC50 calculations using the dose-response log (inhibitor) vs. response -variable slope (four parameters) nonlinear regression feature available in GraphPad Prism 5.0 (or Dotmatics). For EC50 of >10 μM, the percent inhibition at 10 μM is provided.

The subject of test [2] is primary human mesenchymal stem cells (hMSCs). The test can be described thus: Chondrogenesis induction in mesenchymal stem cells (nodule count). The format is cell-based. The following applies: 144 h, 6 days; for EC50: concentration required to induce 50% levels of chondrogenesis vs TGF-β3, read-out: Conc (nM) of 50% TGF-β3 activity; for Emax: relative to TGF-β3 (10 ng/mL) positive control, read-out: Max. Activity as % TGF-β3 activity. The method, then:
Representative compounds were screened using primary human mesenchymal stem cells (hMSCs) to determine their ability to induce chondrogenesis (process by which cartilage is developed).
Human Mesenchymal Stem Cell Culture: Primary human mesenchymal stem cells (hMSCs) were purchased from Lonza (Walkersville, Md.) and expanded in Mesenchymal Stem Cell Growth Media (Lonza). Cells between passage 3 and 6 were used for the experiments.
Compound Screening: Each compound was dissolved in DMSO as a 10 mM stock and used to prepare compound source plates. Serial dilution (1:3, 6-point dose-response curves from 2700 nM to 10 nM) and compound transfer was performed using the ECHO 550 (Labcyte, Sunnyvale, Calif.) into 96-well clear bottom assay plates (Greiner Bio-One) with appropriate DMSO backfill for a final DMSO concentration of 0.03%. hMSCs were plated at 20,000 cells/well in 250 μL/well Incomplete Chondrogenic Induction Medium (Lonza; DMEM, dexamethasone, ascorbate, insulin-transferrin-selenium [ITS supplement], gentamycin-amphotericin [GA-1000], sodium pyruvate, proline and L-glutamine). TGF-β3 (10 ng/mL) was used as a positive control for differentiation while negative control wells were treated with 75 nL DMSO for normalization and calculating EC50 values. Cells were incubated at 37° C. and 5% CO2 for 6 days. To image chondrogenic nodules, the cells were fixed using 4% formaldehyde (Electron Microscopy Sciences), and stained with 2 μg/mL Rhodamine B (Sigma-Aldrich) and 20 μM Nile Red (Sigma-Aldrich) [Johnson K., et. al, A Stem Cell-Based Approach to Cartilage Repair, Science, (2012). 336(6082), 717-721]. The nodules imaged (4 images per well at 4× magnification) by excitation at 531 nm and emission at 625 nm and quantified using the CellInsight CX5 (Thermo Scientific). Number of nodules in each well was normalized to the average of 3 DMSO treated wells on the same plate using Excel (Microsoft Inc.). The normalized averages (fold change over DMSO) of 3 replicate wells for each compound concentration were calculated. Due to solubility limitations of some of the compounds, curve fitting was incomplete leading to inaccurate EC50 determinations.
Using TGF-β3 as a positive control, the concentration of representative compounds required to induce 50% levels of chondrogenesis is reported. In addition, the maximum activity of each compound and the respective dose that each compound reached maximum chondrogenesis activity is reported.

Regarding `Fc1cccc(-c2ccnc3[nH]c(-c4n[nH]c5ccc(-c6cncc(CN7CCCCC7)c6)nc45)cc23)c1` [Compound 15, 3-(4-(3-Fluorophenyl)-1H-pyrrolo[2,3-b]pyridin-2-yl)-5-(5-(piperidin-1-ylmethyl)pyridin-3-yl)-1H-pyrazolo[4,3-b]pyridine], in test [1], the EC50 is over 10000 nM and the inhibition at 10 µM amounted to 8%. Also, in test [2], the EC50 was 900 nM and the Emax turned out to be 62%.
Take `CN(C)Cc1cncc(-c2ccc3[nH]nc(-c4cc5c(-c6ccccc6F)ccnc5[nH]4)c3n2)c1` [Compound 69, 1-(5-(3-(4-(2-Fluorophenyl)-1H-pyrrolo[2,3-b]pyridin-2-yl)-1H-pyrazolo [4,3-b]pyridin-5-yl)pyridin-3-yl)-N,N-dimethylmethanamine]: in test [1], the EC50 was over 10000 nM and the inhibition at 10 µM was found to be 8.3%. Besides, in test [2], the Emax stood at 44%.
With `c1cncc(-c2ccc3[nH]nc(-c4cc5c(-c6cccnc6)ccnc5[nH]4)c3n2)c1` [Compound 88, 5-(Pyridin-3-yl)-3-(4-(pyridin-3-yl)-1H-pyrrolo[2,3-b]pyridin-2-yl)-1H-pyrazolo[4,3-b]pyridine], in test [1], the EC50 was over 10000 nM and the inhibition at 10 µM came to 10.1%. Moreover, in test [2], the EC50 was 100 nM and the Emax came to 59%.
Take `CN(C)c1cncc(-c2ccc3[nH]nc(-c4cc5c(-c6cccnc6)ccnc5[nH]4)c3n2)c1` [Compound 91, N,N-Dimethyl-5-(3-(4-(pyridin-3-yl)-1H-pyrrolo[2,3-b]pyridin-2-yl)-1H-pyrazolo[4,3-b]pyridin-5-yl)pyridin-3-amine]: in test [1], the EC50 is over 10000 nM and the inhibition at 10 µM was found to be 18.2%. Besides, in test [2], the EC50 was determined as 30 nM and the Emax turned out to be 71%.
`CC(C)Nc1cncc(-c2ccc3[nH]nc(-c4cc5c(-c6cccnc6)ccnc5[nH]4)c3n2)c1` [Compound 96, N-Isopropyl-5-(3-(4-(pyridin-3-yl)-1H-pyrrolo[2,3-b]pyridin-2-yl)-1H-pyrazolo[4,3-b]pyridin-5-yl)pyridin-3-amine]: the EC50 in test [1] was found to be 255 nM. Further, the Emax in test [2] amounted to 47%.
Regarding `FC1(F)CCN(Cc2cncc(-c3ccc4[nH]nc(-c5cc6c(-c7cccnc7)ccnc6[nH]5)c4n3)c2)C1` [Compound 110, 5-(5-((3,3-Difluoropyrrolidin-1-yl)methyl)pyridin-3-yl)-3-(4-(pyridin-3-yl)-1H-pyrrolo[2,3-b]pyridin-2-yl)-1H-pyrazolo[4,3-b]pyridine], in test [1], the EC50 is over 10000 nM and the inhibition at 10 µM was found to be 47.7%. In addition, in test [2], the EC50 worked out at 300 nM and the Emax was determined as 80%.
As for `Nc1cncc(-c2ccc3[nH]nc(-c4cc5c(-c6ccncc6)ccnc5[nH]4)c3n2)c1` [Compound 115, 5-(3-(4-(Pyridin-4-yl)-1H-pyrrolo[2,3-b]pyridin-2-yl)-1H-pyrazolo[4,3-b]pyridin-5-yl)pyridin-3-amine], in test [1], the EC50 was over 10000 nM and the inhibition at 10 µM worked out at 24.4%. Moreover, in test [2], the Emax was found to be 27%.
For `Cc1ccncc1-c1ccc2[nH]nc(-c3cc4c(-c5ccncc5)ccnc4[nH]3)c2n1` [Compound 117, 5-(4-Methylpyridin-3-yl)-3-(4-(pyridin-4-yl)-1H-pyrrolo[2,3-b]pyridin-2-yl)-1H-pyrazolo[4,3-b]pyridine], in test [1], the EC50 is over 10000 nM and the inhibition at 10 µM amounted to 11.8%. Moreover, in test [2], the EC50 stood at 300 nM and the Emax is 56%.
In the same order, the values of `c1cc(-c2ccnc3[nH]c(-c4n[nH]c5ccc(-c6cncc(CN7CCCCC7)c6)nc45)cc23)ccn1` [Compound 127, 5-(5-(Piperidin-1-ylmethyl)pyridin-3-yl)-3-(4-(pyridin-4-yl)-1H-pyrrolo[2,3-b]pyridin-2-yl)-1H-pyrazolo[4,3-b]pyridine] are over 10000 nM, 5.8%, 2700 nM and 55%.
As to `c1cc(-c2ccnc3[nH]c(-c4n[nH]c5ccc(-c6cncc(CNCC7CCCC7)c6)nc45)cc23)ccn1` [Compound 137, 1-Cyclopentyl-N-((5-(3-(4-(pyridin-4-yl)-1H-pyrrolo[2,3-b]pyridin-2-yl)-1H-pyrazolo[4,3-b]pyridin-5-yl)pyridin-3-yl)methyl)methanamine], in test [1], the EC50 is over 10000 nM and the inhibition at 10 µM is 19.5%. Besides, in test [2], the EC50 was 100 nM and the Emax worked out at 67%.
`Cc1ccncc1-c1ccc2[nH]nc(-c3cc4c(N5CCCCC5)ccnc4[nH]3)c2n1` [Compound 173, 5-(4-Methylpyridin-3-yl)-3-(4-(piperidin-1-yl)-1H-pyrrolo[2,3-b]pyridin-2-yl)-1H-pyrazolo[4,3-b]pyridine] had an EC50 in test [1] of 2360 nM. Further, in test [2], the EC50 was determined as 900 nM and the Emax was determined as 101%.
Consider `CN(C)Cc1cncc(-c2ccc3[nH]nc(-c4cc5c(N6CCCCC6)ccnc5[nH]4)c3n2)c1` [Compound 181, N,N-Dimethyl-1-(5-(3-(4-(piperidin-1-yl)-1H-pyrrolo[2,3-b]pyridin-2-yl)-1H-pyrazolo[4,3-b]pyridin-5-yl)pyridin-3-yl)methanamine], for which, in test [1], the EC50 was over 10000 nM and the inhibition at 10 µM turned out to be 4.1%. In test [2], the EC50 was found to be 10 nM and the Emax was 82%.
Turning to `CCCCC(=O)Nc1cncc(-c2ccc3[nH]nc(-c4cc5c(N6CCCCC6)ccnc5[nH]4)c3n2)c1` [Compound 187, N-(5-(3-(4-(Piperidin-1-yl)-1H-pyrrolo[2,3-b]pyridin-2-yl)-1H-pyrazolo[4,3-b]pyridin-5-yl)pyridin-3-yl)pentanamide], in test [1], the EC50 was over 10000 nM and the inhibition at 10 µM was found to be 14.3%. For the same compound, in test [2], the EC50 was determined as 10 nM and the Emax turned out to be 92%.
With `FC1(F)CCN(Cc2cncc(-c3ccc4[nH]nc(-c5cc6c(N7CCCCC7)ccnc6[nH]5)c4n3)c2)C1` [Compound 194, 5-(5-((3,3-Difluoropyrrolidin-1-yl)methyl)pyridin-3-yl)-3-(4-(piperidin-1-yl)-1H-pyrrolo[2,3-b]pyridin-2-yl)-1H-pyrazolo[4,3-b]pyridine], the EC50 in test [1] came out at 5270 nM. In test [2], the Emax amounted to 38%.
For `c1ncc(-c2ccc3[nH]nc(-c4cc5c(N6CCCCC6)ccnc5[nH]4)c3n2)cn1` [Compound 195, 3-(4-(Piperidin-1-yl)-1H-pyrrolo[2,3-b]pyridin-2-yl)-5-(pyrimidin-5-yl)-1H-pyrazolo[4,3-b]pyridine], in test [1], the EC50 was over 10000 nM and the inhibition at 10 µM is 12.6%. Besides, in test [2], the EC50 is 10 nM and the Emax was 100%.
The compound `CC(C)CC(=O)Nc1cncc(-c2ccc3[nH]nc(-c4cc5c(N6CCN(C)CC6)ccnc5[nH]4)c3n2)c1` [Compound 226, 3-Methyl-N-(5-(3-(4-(4-methylpiperazin-1-yl)-1H-pyrrolo[2,3-b]pyridin-2-yl)-1H-pyrazolo[4,3-b]pyridin-5-yl)pyridin-3-yl)butanamide] showed an EC50 in test [1] of 3450 nM. The Emax in test [2] came out at 49%.
